The values that follow come from patent US20070259784A1, “Fungicidal Mixtures” (BASF Aktiengesellschaft, priority 2004, published 2007).

The assay has as its system Puccinia recondita. Kind of assay: Protective activity against Puccinia recondita on wheat (brown rust of wheat). The following applies: individual active compound, wheat leaves, visual rating. Format: in vivo. The method, then:
The active compounds, separately or jointly, were prepared as a stock solution comprising 0.25% by weight of active compound in acetone or DMSO. 1% by weight of the emulsifier Uniperol® EL (welting agent having emulsifying and dispersant action based on ethoxylated alkylphenols) was added to this solution, and the mixture was diluted with water to the desired concentration.
Leaves of potted wheat seedlings of the cultivar “Kanzler” were sprayed to runoff point with an aqueous suspension having the concentration of active compound stated below. The next day, the treated plants were inoculated with a spore suspension of brown rust of wheat (Puccinia recondita). The plants were then placed in a chamber with high atmospheric humidity (90 to 95%) at 20 to 22° C. for 24 hours. During this time, the spores germinated and the germinal tubes penetrated into the leaf tissue. The next day, the test plants were returned to the greenhouse and cultivated at temperatures between 20 and 22° C. and at 65 to 70% relative atmospheric humidity for a further 7 days. The extent of the development of the rust fungus on the leaves was then determined visually.
The visually determined percentages of infected leaf areas were converted into efficacies in % of the untreated control:
The efficacy (E) is calculated as follows using Abbot's formula: E=(1−α/β)·100 α corresponds to the fungicidal infection of the treated plants in % and β corresponds to the fungicidal infection of the untreated (control) plants in %
An efficacy of 0 means that the infection level of the treated plants corresponds to that of the untreated control plants; an efficacy of 100 means that the treated plants were not infected.
The expected efficacies of mixtures of active compounds were determined using Colby's formula (Colby, S. R. “Calculating synergistic and antagonistic responses of herbicide combinations”, Weeds, 15, 20-22, 1967) and compared with the observed efficacies.
Colby's Formula: E=x+y−x·y/100 • E expected efficacy, expressed in % of the untreated control, when using the mixture of the active compounds A and B at the concentrations a and b • x efficacy, expressed in % of the untreated control, when using the active compound A at the concentration a
y efficacy, expressed in % of the untreated control, when using the active compound B at the concentration b

In the case of `CC1CCN(c2c(-c3c(F)cc(F)cc3F)c(Cl)nc3ncnn23)CC1` [compound I, 5-chloro-7-(4-methylpiperidin-1-yl)-6-(2,4,6-trifluorophenyl)-[1,2,4]triazolo[1,5-a]pyrimidine], the “Efficacy in % of the untreated control” value turned out to be 42% (2.5 ppm in the spray liquor) and 53% (5 ppm in the spray liquor).

With `CCN(CC)C1COC2(CCC(C(C)(C)C)CC2)O1` (centres unmarked) [compound II, (8-tert-butyl-1,4-dioxaspiro[4.5]dec-2-yl)diethylamine], the “Efficacy in % of the untreated control” value runs as follows: (1 ppm in the spray liquor) 0%; (2.5 ppm in the spray liquor) 0%; (12.5 ppm in the spray liquor) 0%.
